Assay results from US20110015371A1 (Vertex Pharmaceuticals Incorporated, priority 1994, published 2011).
Counter-ions that a name gives are not always drawn. Non-standard residues stand in square brackets, D forms with d. Residues, ends and D or L forms follow the SMILES beside them. *: point of attachment. Hyp = O=C(O)[C@@H]1C[C@@H](O)CN1; Bn = c1ccc(C*)cc1

Biological target: T1, ICE (Homo sapiens, UniProt P29466)
T1 sequence (P29466 120-297 limits assumed): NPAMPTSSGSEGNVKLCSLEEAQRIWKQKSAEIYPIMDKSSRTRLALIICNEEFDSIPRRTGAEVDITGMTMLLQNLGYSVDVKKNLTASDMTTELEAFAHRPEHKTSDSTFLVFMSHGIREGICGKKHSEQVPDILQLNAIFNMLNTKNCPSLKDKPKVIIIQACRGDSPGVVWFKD
T1 sequence (P29466 317-404 limits assumed): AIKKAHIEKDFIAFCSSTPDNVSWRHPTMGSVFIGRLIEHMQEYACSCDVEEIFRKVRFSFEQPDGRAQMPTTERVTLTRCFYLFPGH
Test: Enzyme assay with UV-visible substrate (Succinyl-Tyr-Val-Ala-Asp-pNitroanilide)
Type: biochemical
Procedure: 1. Enzyme Assay with UV-Visible Substrate
This assay is run using an Succinyl-Tyr-Val-Ala-Asp-pNitroanilide substrate. Synthesis of analogous substrates is described by L. A. Reiter (Int. J. Peptide Protein Res. 43, 87-96 (1994)). The assay mixture contains:
The visible ICE assay is run in a 96-well microtiter plate. Buffer, ICE and DMSO (if inhibitor is present) are added to the wells in the order listed. The components are left to incubate at room temperature for 15 minutes starting at the time that all components are present in all wells. The microtiter plate reader is set to incubate at 37° C. After the 15 minute incubation, substrate is added directly to the wells and the reaction is monitored by following the release of the chromophore (pNA) at 405-603 nm at 37° C. for 20 minutes. A linear fit of the data is performed and the rate is calculated in mOD/min. DMSO is only present during experiments involving inhibitors, buffer is used to make up the volume to 100 μl in the other experiments.
For determination of enzyme inhibition constants (Ki) or the mode of inhibition (competitive, uncompetitive or noncompetitive), the rate data determined in the enzyme assays at varying inhibitor concentrations are computer-fit to standard enzyme kinetic equations (see I. H. Segel, Enzyme Kinetics, Wiley-Interscience, 1975).

| Ki (Example 4 table) | Ki (Example 6 table) | Compound |
| --- | --- | --- |
| 0.97 µM | – | CC(C(=O)N[C@H](C=O)CC(=O)O)n1c(Cc2ccccc2)ccc(NC(=O)CCc2ccccc2)c1=O (mixture of isomers) [Compound 54h, 3(S), N(2(R,S))3-(2-(6-Benzyl-1,2-dihydro-2-oxo-3-(3-phenylpropionyl)amino-1-pyridyl)propionylamino)-4-oxobutanoic acid] |
| 35 µM | – | O=CC(CC(=O)O)NC(=O)C1CCc2ncc(NC(=O)c3ccccc3)c(=O)n21 (single isomer, unassigned) [Compound 7a] |
| 1.2 µM | – | O=CC(CC(=O)O)NC(=O)C1CCc2ncc(NC(=O)c3ccccc3)c(=O)n21 (single isomer, unassigned) [Compound 7b] |
| 6.2 µM | – | O=C[C@H](CC(=O)O)NC(=O)CN(CCc1ccccc1)C(=O)c1ncc(CCCc2ccccc2)[nH]1 [Compound 25, (3S)-(2-{Phenethyl-[5-(3-phenylpropyl)-1H-imidazole-2-carbonyl]amino}acetylamino)-4-oxobutanoic acid trifluoroacetic acid salt] |
| 0.9 µM | – | O=C[C@H](CC(=O)O)NC(=O)Cn1c(-c2ccccc2)ccc(NC(=O)CCc2ccccc2)c1=O [Compound 54f, 3(S)3-(1,2-Dihydro-2-oxo-6-phenyl-3-(3-phenyl-propionyl)amino-1-pyridyl)acetylamino-4-oxobutanoic acid] |
| – | 3.8 µM | O=C[C@H](CC(=O)O)NC(=O)CN1CCCC[C@H](NC(=O)CCc2ccc(O)cc2)C1=O [Compound 92, 3-(S)-(2-(3[3-(S)-(4-Hydroxy-phenyl)-propionylamino]-2-oxo-azepan-1-yl)-acetylamino)-4-oxo-butyric acid] |
| – | 0.68 µM | O=C(O)C[C@H](NC(=O)[C@@H]1CCc2ncc(NC(=O)CCc3ccccc3)c(=O)n21)C(=O)c1ncc(-c2c(Cl)cccc2Cl)o1 [Compound 102c, 4-[5-(2,6-Dichloro-phenyl)-oxazol-2-yl]-4-oxo-(3S)-{[4-oxo-3-(3-phenyl-propionylamino)-4,6,7,8-tetrahydro-pyrrolo[1,2-a]pyrimidine-(6S)-carbonyl]-amino}-butyric acid] |
| – | 3.7 µM | O=C[C@H](CC(=O)O)NC(=O)CN1CCN(Cc2ccccc2)C[C@H](NC(=O)OCc2ccccc2)C1=O [Compound 114b, 3(S)-{2-[4-Benzyl-7-oxo-6(S)—(N-benzyloxycarbonylamino)-[1,4]diazepan-1-yl]-acetylamino}-4-oxo-butyric acid trifluoroacetic acid salt] |
| – | 12.5 µM | O=C[C@H](CC(=O)O)NC(=O)[C@@H]1CCCN2C(=O)C[C@@H](NC(=O)CCc3ccccc3)C(=O)N12 [Compound 132b] |
| – | 0.67 µM | O=C[C@H](CC(=O)O)NC(=O)[C@@H]1CS[C@@H]2CCC[C@H](NC(=O)CCc3ccccc3)C(=O)N21 [Compound 141] |
| – | 8.8 µM | CC(C)[C@H](NC(=O)OCc1ccccc1)C(=O)N[C@@H](C)C(=O)N[C@@H](CC(=O)O)C(=O)c1ncco1 [Compound 152] |
| – | 0.24 µM | CC(C)[C@H](NC(=O)OCc1ccccc1)C(=O)N[C@@H](C)C(=O)N[C@@H](CC(=O)O)C(=O)c1nc(-c2ccccc2)co1 [Compound 153] |
| – | 0.023 µM | CC(=O)N[C@@H](Cc1ccc(O)cc1)C(=O)N[C@H](C(=O)N1CCC[C@H]1C(=O)N[C@@H](CC(=O)O)C(=O)c1ncc(-c2c(Cl)cccc2Cl)o1)C(C)C [Compound 155] |
| – | 0.26 µM | O=C(O)C[C@H](NC(=O)[C@@H]1CCCN1C(=O)c1ncc(CCCc2ccccc2)[nH]1)C(=O)c1ncc(-c2c(Cl)cccc2Cl)o1 [Compound 157] |
| – | 1.1 µM | CC(=O)N[C@H](C(=O)N1C[C@H](OCc2ccccc2)C[C@H]1C(=O)N[C@H](C=O)CC(=O)O)C(C)C [Compound 158] (Ac-Val-[Hyp](Bn)-Asp-aldehyde) |
| – | 0.011 µM | CC(=O)N[C@@H](Cc1ccc(O)cc1)C(=O)N[C@H](C(=O)N1C[C@H](Oc2ccccc2)CC1C(=O)N[C@@H](CC(=O)O)C(=O)CSCc1ccccc1Cl)C(C)C (stereo partly shown) [Compound 161] |
